Measurements: patent US20250017859A1, “SOLID DISPERSION, PREPARATION METHOD, AND PHARMACEUTICAL COMPOSITION THEREOF” (Anxo Pharmaceutical Co., Ltd., priority 2023, published 2025)
Values after ≈ are worked out from the molar mass of the structure shown. Counter-ions that a name gives are not always drawn.

Experiments:
[1] = Dissolution test 1: solubility by paddle method in pH 6.0+0.01% SDS medium; format: physicochemical
Procedure: Dissolution tests of experimental group 1 to experimental group 28 produced by spray drying or hot melt extrusion, control group lurasidone HCl and lurasidone are performed to analyze the solubility of each experimental group and control group lurasidone HCl and lurasidone. The dissolution test is performed by paddle method in 500 mL of medium with a pH value of 6.0+0.01% SDS, in which a rotation speed is 100 rpm and a sampling time is 60 minutes.
For comparing the applicability of the carriers suitable for solid dispersion including lurasidone, solid dispersion of comparative group 1 (including crospovidone, a kind of common carrier ingredient) is prepared according to Example 1.2 (HME) and the weight ratio of table 12, and the solubility is tested according the abovementioned method of Example 1.3.1.

[2] = cited from earlier work
[3] = Animal test: pharmacokinetics in fasted rats; format: in vivo; conditions: male, Sprague-Dawley, rat, plasma; rats under fasting state; dose equal to 10 mg/kg lurasidone HCl
Procedure: Lurasidone HCl is used as control group, experimental groups 14-17, 22 and 28 are used as tested group, the pharmacokinetics of each group is evaluated in male Sprague-Dawley rats.
Specifically, control group and experimental groups 14-17, 22 and 28 are administrated to rats under fasting state, respectively, in which the dosage contains 10 mg/kg of lurasidone HCl or the amount of lurasidone equal to 10 mg/kg lurasidone HCl. The number of experimental rats in each group is three, and the sampling time is 0, 0.25, 0.5, 1, 1.5, 2, 4, 6, 8 and 24 hours for analyzing pharmacokinetic results, which are shown in table 15.

Row | Solubility ([1]; Table 11, paddle method, 500 mL medium pH 6.0+0.01% SDS, 100 rpm, sampling time 60 minutes) [µg/mL] | Solubility ([1]; Table 12, carrier comparison PVAP vs crospovidone, method of Example 1.3.1) [µg/mL] | Solubility ([1]; Table 11, paddle method, 500 mL medium pH 6.0+0.01% SDS, 100 rpm, sampling time 60 minutes, HCl) [µg/mL] | Solubility ([1]; Table 12, carrier comparison PVAP vs crospovidone, method of Example 1.3.1, HCl) [µg/mL] | AUC(0-inf) [3] [ng·h/mL] | Cmax [3] [ng/mL] | Compound | solubility in water [2]
1 | 0.09 (≈ 0.183 µM) | 0.09 (≈ 0.183 µM) |  |  |  |  | O=C1[C@@H]2[C@H]3CC[C@H](C3)[C@@H]2C(=O)N1C[C@@H]1CCCC[C@H]1CN1CCN(c2nsc3ccccc23)CC1 [Lurasidone] | lower than 0.1 mg/mL
2 |  |  | 0.46 | 0.46 | 102 | 32 | O=C1[C@@H]2[C@H]3CC[C@H](C3)[C@@H]2C(=O)N1C[C@@H]1CCCC[C@H]1CN1CCN(c2nsc3ccccc23)CC1 [Lurasidone HCl] | 
